Series [1] relates to Caco 2 cells (differentiating colorectal adenocarcinoma). In words: in vitro inhibition of cell proliferation / survival assay. The conditions noted are these: for viability at 25 µM / IC50: Homo sapiens; for viability at 25 µM / % of Survival: measured at 25 μM after 48 h, single dose, triplicate; for IC50: 48 h, average of three assays, standard error ± 0.5 μM. Format: cell-based. Here is the method: (§1) As an initial effort to investigate their in vitro bioactivity, the new synthesized 3-(4-arylmethylamino)butyl-2-thioxo-1,3-thiazolidine-4-one 9a–n and also their precursors 6a–f were evaluated for their in vitro inhibition of cell proliferation. For this study, we used a panel of seven representative tumoral cell lines, namely HuH7 D12 (differential hepato cellular carcinoma), Caco 2 (differentiating colorectal adenocarcinoma), MDA-MBD231 ([…]), HCT 116 (actively proliferating colorectal adenocarcinoma), PC3 (prostate carcinoma), NCI-H727 (lung carcinoma), HaCat keratinocyte and, diploid skin fibroblasts as normal cell lines for control.
(§2) Skin diploid fibroblastic cells were provided by BIOPREDIC International Company (Rennes, France). Caco2 (Ref ECACC: 86010202), Huh-7D12 (Ref ECACC: 01042712), MDA-MB-231 (Ref ECACC: 92020424), HCT-116 (Ref ECACC: 91091005), PC3 (Ref ECACC: 90112714), NCI-H727 (Ref ECACC: 94060303) cell lines were obtained from the ECACC collection and HaCaT (from Cell Lines Service, Eppelheim, Germany). Cells were grown according to ECACC recommendations. The toxicity test of the compounds on these cells was as follows: 2 × 10^3 cells for HCT-116 cells or 4 × 10^3 for the other cells were seeded in 96 multiwell plates in triplicate and left for 24 h for attachment, spreading and growing. Then, cells were exposed for 48 h to increasing concentrations of the compounds, ranging from 0.1 to 25 μM in a final volume of 120 μL of culture medium. Cells were fixed in cooled solution of 90% ethanol/5% acetic acid, nuclei were stained with Hoechst 3342 (Sigma) and counted using automated imaging analysis (Cellomics Arrayscan VTI/HCS Reader, Thermo/Scientific, Waltham, MA, USA). The IC50 were graphically determined.

Series [2] concerns HCT 116 cells (actively proliferating colorectal adenocarcinoma). Described as above. It counts as cell-based. The conditions noted are these: for viability at 25 µM / IC50: Homo sapiens; for viability at 25 µM / % of Survival: measured at 25 μM after 48 h, single dose, triplicate; for IC50: 48 h, average of three assays, standard error ± 0.5 μM. As for the experimental part:
as §1, §2

Series [3] deals with HaCat keratinocyte. Described as above. The conditions noted are these: for viability at 25 µM / IC50: Homo sapiens; for viability at 25 µM / % of Survival: measured at 25 μM after 48 h, single dose, triplicate; for IC50: HaCaT, 48 h, average of three assays, standard error ± 0.5 μM. It counts as cell-based. As for the experimental part:
as §1, §2

For series [4], the system named is Huh7 D12 cells (differential hepato cellular carcinoma). The series is described as above. Format: cell-based. The conditions noted are these: for viability at 25 µM: Huh-7D12, measured at 25 μM after 48 h; for viability at 25 µM / % of Survival: single dose, triplicate; for % of Survival: measured at 25 μM after 48 h; for IC50: Huh-7D12, 48 h, average of three assays, standard error ± 0.5 μM. Here is the method: as §1, §2

Series [5] concerns MDA-MB231 cells. Described as above. Format: cell-based. The conditions noted are these: for viability at 25 µM / IC50: Homo sapiens; for viability at 25 µM: MDA-MB-231, measured at 25 μM after 48 h; for viability at 25 µM / % of Survival: single dose, triplicate; for % of Survival: measured at 25 μM after 48 h; for IC50: MDA-MB-231, 48 h, average of three assays, standard error ± 0.5 μM. Here is the method: as §1, §2

Series [6] deals with NCI-H727 cells (lung carcinoma). Described as above. It counts as cell-based. The note with it: for viability at 25 µM: Homo sapiens, read-out: % of Survival. As for the experimental part: as §1, §2
The test system of series [7] is PC3 cells (prostate carcinoma). Described as above. Format: cell-based. The conditions noted are these: for viability at 25 µM: PC-3, measured at 25 μM after 48 h; for viability at 25 µM / % of Survival: single dose, triplicate; for % of Survival: measured at 25 μM after 48 h. Here is the method: as §1, §2
Series [8] has as its system diploid skin fibroblasts. Put plainly: in vitro inhibition of cell proliferation / survival assay, normal cells control. Format: cell-based. The conditions noted are these: for viability at 25 µM: read-out: % of Survival. As for the experimental part: as §1, §2
Setting [9] is: NCI-H727, measured at 25 μM after 48 h, single dose, triplicate.
Setting [10] is: Skin fibroblast, Fibroblasts, measured at 25 μM after 48 h, single dose, triplicate.
The mark [11] stands for this setting: Fibroblasts, measured at 25 μM after 48 h, single dose, triplicate.

Like-named read-outs stand apart in the source and are kept apart here.

In the case of `Cl.NCCCCNCc1ccccc1` [Compound 6a, N-1-Phenylmethyl-butane-1,4-diamine hydrochloride], the melting point is greater than 260 °C. Moreover, the viability at 25 µM in [1] came out at 114%. In addition, the viability at 25 µM in series [2] was 112%. In addition, the viability at 25 µM in [3] is 97%. Also, in series [4], the viability at 25 µM was determined as 102%. For the same compound, the viability at 25 µM in [5] was determined as 104%. Moreover, in series [6] (setting [9]), the viability at 25 µM was found to be 97%. For the same compound, in [7] (Homo sapiens), the viability at 25 µM was determined as 100%. For the same compound, the viability at 25 µM in series [8] (setting [10]) came out at 93%.

Take `COc1ccc(CNCCCCN)cc1.Cl` [Compound 6b, N-1-(4-Methoxy-phenylmethyl)-butane1,4-diamine hydrochloride]: the “% of Survival” value stood at 114% in series [1]; 112% in [2]; 106% in series [3]; 107% in series [4]; 100% in [5]; 86% in [6] (setting [9]). For the same compound, the “% of Survival” value in [7] and in [8] (setting [11]) was 100% throughout.

For `Cl.NCCCCNCc1ccccc1Cl` [Compound 6c, N-1-(2-Chloro-phenylmethyl)-butane1,4-diamine hydrochloride], the “% of Survival” value in series [1] worked out at 93%; in series [2] it was 98%; in [3] it was 80%; in series [4] it was 82%; in series [5], 102%; in [6] (setting [9]), 100%. For the same compound, the “% of Survival” value in [7] came to 96%; in series [8] (setting [11]), 84%.

`COc1cccc(CNCCCCN)c1.Cl` [Compound 6d, N-1-(3-Methoxy-phenylmethyl)-butane-1,4-diamine hydrochloride]: the “% of Survival” value in series [1] is recorded as 111%; in [2], 111%; in series [3], 96%; in [4], 107%; in [5], 99%; in series [6] (setting [9]), 92%. Moreover, the entries for the “% of Survival” value in [7] and in series [8] (setting [11]) were 98% and 93%, respectively.

On to `Cl.NCCCCNCc1ccc2c(c1)OCO2` [Compound 6e, N-1-Benzo[1,3]dioxol-5-ylmethyl-butane-1,4-diamine hydrochloride], for which the melting point is greater than 260 °C. The viability at 25 µM in series [1] was 106%. The viability at 25 µM in series [2] amounted to 102%. In series [3], the viability at 25 µM was determined as 96%. The viability at 25 µM in series [4] worked out at 91%. The viability at 25 µM in series [5] is 102%. Also, the viability at 25 µM in series [6] (setting [9]) stood at 98%. Further, the viability at 25 µM in [7] (Homo sapiens) worked out at 96%. In addition, the viability at 25 µM in series [8] (setting [10]) worked out at 93%.

On to `Cl.NCCCCNCc1ccc2c(c1)OCCO2` [Compound 6f, N-1-(2,3-Dihydro-benzo[1,4]dioxin-6-ylmethyl)-butane-1,4-diamine hydrochloride], for which the “% of Survival” value stood at 109% in [1]; 96% in [2]; 94% in [3]; 88% in series [4]; 99% in series [5]; 92% in [6] (setting [9]). In addition, the “% of Survival” value came out at 97% in series [7] and 105% in series [8] (setting [11]).

For the compound `COc1cccc(CNCCCCN2C(=O)/C(=C/c3ccc4c(c3)OCO4)SC2=S)c1` [Compound 9e, (5Z)3-[4-(3-Methoxyphenylmethylamino)butyl]-5-(1,3-benzodioxol-5-ylmethylene)-2-thioxo-1,3-thiazolidin-4-one], the viability at 25 µM came to 97% in series [1]; 99% in series [2]; 86% in series [3]; 74% in [4]; 97% in [5]; 102% in [6] (setting [9]). In addition, the values for the viability at 25 µM in series [7] (Homo sapiens) and in series [8] (setting [10]) were 85% and 122%, respectively.

Take `O=C1/C(=C/c2ccc3c(c2)OCO3)SC(=S)N1CCCCNCc1ccc2c(c1)OCCO2` [Compound 9l, (5Z)-[4-(2,3-Dihydro-benzo[1,4]dioxin-6-ylmethylamino)butyl]-5-(1,3-benzodioxol-5-ylmethylene)-2-thioxo-1,3-thiazolidin-4-one]: the viability at 25 µM in series [1] was 105%; in [2], 106%; in [3], 95%; in series [4], 90%; in [5], 98%; in series [6] (setting [9]), 96%. For the same compound, the viability at 25 µM came to 93% in series [7] (Homo sapiens) and 128% in series [8] (setting [10]).

As for `O=C1/C(=C/c2ccc3c(c2)OCCO3)SC(=S)N1CCCCNCc1ccc2c(c1)OCCO2` [Compound 9m, (5Z)3-[4-(2,3-Dihydro-benzo[1,4]dioxin-6-ylmethylamino)butyl]-5-(2,3-dihydro-benzo[1,4]dioxin-6-ylmethylene)-2-thioxo-1,3-thiazolidin-4-one], the viability at 25 µM came out at 107% in series [1]; 103% in series [2]; 94% in series [3]; 97% in series [4]; 99% in series [5]; 98% in [6] (setting [9]). For the same compound, the viability at 25 µM in series [7] (Homo sapiens) was found to be 96%; in series [8] (setting [10]), 149%.

For the compound `COc1cccc2c1C(=O)c1c(O)c3c(c(O)c1C2=O)C[C@@](O)(C(=O)CO)C[C@@H]3O[C@H]1C[C@H](N)[C@H](O)[C@H](C)O1` [Doxorubicine, reference compound], the IC50 in [1] was 30 nM; in series [2] it was 30 nM; in series [3], 20 nM; in series [4] it was 30 nM; in series [5], 10 nM. Moreover, the viability at 25 µM amounted to 43% in series [1]; 22% in series [2]; 88% in series [3]; 63% in series [4]; 82% in series [5]; 65% in [6] (setting [9]). Moreover, the viability at 25 µM in series [7] (Homo sapiens) was found to be 34%; in [8] (setting [10]), 74%.

In the case of `CC[C@H](CO)Nc1nc(NCc2ccccc2)c2ncn(C(C)C)c2n1` [Roscovitine, reference compound], the viability at 25 µM was determined as 30% in [6] (NCI-H727, 48 h) and 53% in series [8] (Skin fibroblast, 48 h).

Regarding `CC(=O)O[C@H]1C(=O)[C@@]2(C)[C@H]([C@H](OC(=O)c3ccccc3)[C@]3(O)C[C@H](OC(=O)[C@H](O)[C@@H](NC(=O)c4ccccc4)c4ccccc4)C(C)=C1C3(C)C)[C@]1(OC(C)=O)CO[C@@H]1C[C@@H]2O` [Taxol, reference compound], the IC50 in series [1] was 40 nM; in series [2], less than 1 nM; in series [3], 1 nM; in series [4], 3 nM; in series [5], 40 nM; in [7] (Homo sapiens, PC-3, 48 h, average of three assays, standard error ± 0.5 μM), less than 1 nM. Besides, in [8] (Skin fibroblast, Fibroblasts, 48 h, average of three assays, standard error ± 0.5 μM), the IC50 is greater than 25 µM. In addition, the viability at 25 µM in series [1] worked out at 29%; in [2] it was 9%; in series [3], 11%; in series [4], 36%; in series [5], 41%; in series [6] (setting [9]) it was 59%. The viability at 25 µM is 35% in series [7] (Homo sapiens) and 76% in series [8] (setting [10]).

The melting point is the temperature of the solid-liquid transition. Usually IC50 stands for the midpoint of a concentration-inhibition curve. Read a low IC50 as higher potency.

For the origin of these results see paper PMC6332318, “Synthetic Development of New 3-(4-Arylmethylamino)butyl-5-arylidene-rhodanines under Microwave Irradiation and Their Effects on Tumor Cell Lines and against Protein Kinases” (Molecules, 2015).
